This note sets out measurements from patent publication US9770445B2, “Sulfoximine substituted 5-fluoro-N-(pyridin-2-yl)pyridin-2-amine derivatives and their use as CDK9 kinase inhibitors” (BAYER PHARMA AKTIENGESELLSCHAFT, priority 2013, dated 2017).

For this assay, the target named is T1, CDK2/CycE (Homo sapiens, UniProt P24941).
T1 construct: GST; purchased ProQinase GmbH (Freiburg, Germany); host or cells: insect cells (Sf9)
Kind of assay: CDK2/CycE kinase assay (Method 2, TR-FRET). It counts as biochemical. Conditions: Method 2, 10 μM ATP. An excerpt:
2. CDK2/CycE Kinase Assay:
CDK2/CycE-inhibitory activity of compounds of the present invention was quantified employing the CDK2/CycE TR-FRET assay as described in the following paragraphs:
Recombinant fusion proteins of GST and human CDK2 and of GST and human CycE, expressed in insect cells (Sf9) and purified by Glutathion-Sepharose affinity chromatography, were purchased from ProQinase GmbH (Freiburg, Germany). As substrate for the kinase reaction biotinylated peptide biotin-Ttds-YISPLKSPYKISEG (C-terminus in amid form) was used which can be purchased e.g. form the company JERINI Peptide Technologies (Berlin, Germany).
For the assay 50 nl of a 100 fold concentrated solution of the test compound in DMSO was pipetted into a black low volume 384 well microtiter plate (Greiner Bio-One, Frickenhausen, Germany), 2 μl of a solution of CDK2/CycE in aqueous assay buffer [50 mM Tris/HCl pH 8.0, 10 mM MgCl2, 1.0 mM dithiothreitol, 0.1 mM sodium ortho-vanadate, 0.01% (v/v) Nonidet-P40 (Sigma)] were added and the mixture was incubated for 15 min at 22° C. to allow pre-binding of the test compounds to the enzyme before the start of the kinase reaction. Then the kinase reaction was started by the addition of 3 μl of a solution of adenosine-tri-phosphate (ATP, 16.7 μM=>final conc. in the 5 μl assay volume is 10 μM) and substrate (1.25 μM=>final conc. in the 5 μl assay volume is 0.75 μM) in assay buffer and the resulting mixture was incubated for a reaction time of 25 min at 22° C. The concentration of CDK2/CycE was adjusted depending of the activity of the enzyme lot and was chosen appropriate to have the assay in the linear range, typical concentrations were in the range of 130 ng/mL. The reaction was stopped by the addition of 5 μl of a solution of TR-FRET detection reagents (0.2 μM streptavidine-XL665 [Cisbio Bioassays, Codolet, France] and 1 nM anti-RB(pSer807/pSer811)-antibody from BD Pharmingen [#558389] and 1.2 nM LANCE EU-W1024 labeled anti-mouse IgG antibody [Perkin-Elmer, product no. AD0077]) in an aqueous EDTA-solution (100 mM EDTA, 0.2% (w/v) bovine serum albumin in 100 mM HEPES/NaOH pH 7.0).
The resulting mixture was incubated 1 h at 22° C. to allow the formation of complex between the phosphorylated biotinylated peptide and the detection reagents. Subsequently the amount of phosphorylated substrate was evaluated by measurement of the resonance energy transfer from the Eu-chelate to the streptavidine-XL. Therefore, the fluorescence emissions at 620 nm and 665 nm after excitation at 350 nm was measured in a TR-FRET reader, e.g. a Rubystar (BMG Labtechnologies, Offenburg, Germany) or a Viewlux (Perkin-Elmer). The ratio of the emissions at 665 nm and at […] was taken as the measure for the amount of phosphorylated substrate. The data were normalised (enzyme reaction without inhibitor=0% inhibition, all other assay components but no enzyme=100% inhibition).
(In general: In TR-FRET formats the signal depends on donor and acceptor labels being close together.)

`CS(=N)(=O)Cc1ccnc(Nc2cc(-c3ccc(F)c4ccoc34)c(F)cn2)c1` (single isomer, unassigned; (+)) [Example 14, (+)-5-Fluoro-4-(4-fluoro-1-benzofuran-7-yl)-N-{4-[(S-methylsulfonimidoyl)methyl]pyridin-2-yl}pyridin-2-amine] gave an IC50 of 142 nM.

As to `CS(=N)(=O)Cc1ccnc(Nc2cc(-c3ccc(F)c4ccoc34)c(F)cn2)c1` (single isomer, unassigned; (-)) [Example 15, (−)-5-Fluoro-4-(4-fluoro-1-benzofuran-7-yl)-N-{4-[(S-methylsulfonimidoyl)methyl]pyridin-2-yl}pyridin-2-amine], the half-maximal inhibitory concentration (IC50) came to 121 nM.

By IC50 is commonly meant the midpoint of a concentration-inhibition curve.
